In PMC5477544, “Structural and mechanistic basis of differentiated inhibitors of the acute pancreatitis target kynurenine-3-monooxygenase” (Nature Communications, 2017):
Like-named read-outs stand apart in the source and are kept apart here.

Tests used:
Type in all cases: biochemical
human KMO [1] = target: T1, human KMO (Homo sapiens, UniProt O15229); experiment: Rapidfire mass spectrometry IC50 assay, isolated human KMO
T1 construct: full-length human KMO was cloned as an N-terminal GST fusion; GST (N); made in house; host or cells: Sf9 insect cells, used as a membrane fraction
Experimental: For the expression and isolation of human KMO membranes, full-length human KMO was cloned as an N-terminal GST fusion, expressed in Sf9 cells and isolated as a membrane fraction as described in Lowe et al.[12]
(§1) Inhibitor IC50 values against isolated human KMO were determined using a Rapidfire mass spectrometry assay as described in Lowe et al.[12] utilizing the Sf9 cell expressed human KMO described above. The inhibitor IC50 values against Pf-KMO were determined using an analogous Rapidfire mass spectrometry assay, utilizing the purified protein described above.

Pf KMO [2] = target: T2, Pf KMO (Pseudomonas fluorescens, UniProt Q84HF5, C252S/C461S); experiment: Rapidfire mass spectrometry IC50 assay, Pf-KMO; conditions: from inhibition curves of Fig. 3b; [Pf-KMO]=1 nM, [L-Kyn]=10 μM, [NADPH]=200 μM
T2 construct: Success was made possible by the use of a full-length P. fluorescens orthologue; made in house; host or cells: Escherichia coli BL21 (DE3)
Experimental: as §1

human KMO [3] = target: T1, human KMO; experiment: Association kinetics (onset of inhibition timecourses); set-up: steady-state rate Vs, onset of inhibition timecourse: unit not given here; conditions: for kobs, onset of inhibition: 200 μM NADPH, 10 μM L-Kyn; for kobs, onset of inhibition at sub-saturating NADPH: 10 nM GSK775(B2), regeneration system
Experimental: For the association kinetics assays, measurements were performed in a buffer of 50 mM Hepes pH 7.5, 2 mM DTT, 1 mM EDTA, 0.1 mM Chaps. Reactions were performed at ambient temperature, by addition of human KMO enzyme to a mixture of L-Kyn and NADPH containing the test inhibitor. […] Aliquots of the mixtures were quenched into 0.5% TFA in water. L-Kyn and 3-HK levels in the quenched samples were measured using the Rapidfire mass spectrometry method described in Lowe et al.[12] Calibration curves for L-Kyn and 3-HK were used to correct for the lower detection response for 3-HK. Per cent turnover and resulting concentration of 3-HK were calculated for each time point in Excel. kobs values for onset of inhibition were obtained by fitting individual timecourses to equation 1 where t=time, vs=steady-state rate, vi=initial rate and c=background[43]. vi was fixed at the uninhibited rate obtained from the slope of the timecourse in the absence of inhibitor.

Pf KMO [4] = target: T2, Pf KMO; experiment: Hydrogen peroxide formation, HRP/Amplex Red assay, Pf-KMO
Experimental: (§2) Measurements were performed in a buffer of 50 mM Hepes pH 7.5, 0.1 mM Chaps. A two-fold dilution series of test inhibitor and control compounds was prepared from DMSO solutions using the Hewlett-Packard D300 digital dispenser in a 384-well plate and normalized to a final DMSO concentration of 1% in the assay. 10 μl of 80 μg ml^−1 human KMO or 40 nM Pf-KMO were added. After 15 min incubation, 10 μl of a substrate/detection mix (2 U ml^−1 HRP, 20 μM Amplex Red, 40 μM NADPH) were added and the plate was read kinetically on a Tecan M1000 fluorescent plate reader with excitation wavelength 530 nm and emission wavelength 580 nm. A calibration curve comprising a two-fold dilution series of resorufin from 20 μM top concentration was included on the plate, and used to convert assay data to concentration of resorufin formed. Initial rate (μM min^−1) was extracted by linear fitting of the early region of each timecourse. Dose responses were fitted to a four parameter logistic expression where appropriate.

human KMO [5] = target: T1, human KMO; experiment: Hydrogen peroxide formation, HRP/Amplex Red assay, human KMO
Experimental: as §2

human KMO [6] = target: T1, human KMO; experiment: Dissociation kinetics (recovery of activity timecourses) and full kinetic analysis; set-up: steady-state rate Vs after equilibration of inhibitor binding, dissociation timecourse: unit not given here
Experimental: The dissociation kinetics measurements were performed in a buffer of 50 mM Hepes pH 7.5, 2 mM DTT, 1 mM EDTA, 0.1 mM Chaps. […] Aliquots of the reaction mixtures were quenched into 0.5% TFA in water. 3-HK levels in the quenched samples were measured using the Rapidfire mass spectrometry assay described in Lowe et al.[12] A calibration curve for 3-HK was used to convert the data to concentration of 3-HK at each time point. kobs values for recovery of activity were obtained by fitting individual timecourses to equation 1 with vi (initial rate) set to zero.
In this analysis, inhibitor kon was fixed at the value obtained in the association kinetic studies, and kcat and inhibitor koff were the two variable parameters.

Pf KMO [7] = target: T2, Pf KMO; experiment: L-Kyn KM determination, Rapidfire mass spectrometry, Pf-KMO
Experimental: (§3) The KM of kynurenine for human KMO and for Pf KMO were measured as described in Lowe et al.[12]. The KM of NADPH for human KMO was measured using a regeneration system as described in Lowe et al.[12], with a kynurenine concentration of 10 μM.

human KMO [8] = target: T1, human KMO; experiment: NADPH KM determination with regeneration system, human KMO; conditions: 10 M Kynurenine (so in the source)
Experimental: as §3

[9] = from inhibition curves of Fig. 3b, read-out: IC50 Human KMO

T2 sequence (Q84HF5 whole entry C252S/C461S): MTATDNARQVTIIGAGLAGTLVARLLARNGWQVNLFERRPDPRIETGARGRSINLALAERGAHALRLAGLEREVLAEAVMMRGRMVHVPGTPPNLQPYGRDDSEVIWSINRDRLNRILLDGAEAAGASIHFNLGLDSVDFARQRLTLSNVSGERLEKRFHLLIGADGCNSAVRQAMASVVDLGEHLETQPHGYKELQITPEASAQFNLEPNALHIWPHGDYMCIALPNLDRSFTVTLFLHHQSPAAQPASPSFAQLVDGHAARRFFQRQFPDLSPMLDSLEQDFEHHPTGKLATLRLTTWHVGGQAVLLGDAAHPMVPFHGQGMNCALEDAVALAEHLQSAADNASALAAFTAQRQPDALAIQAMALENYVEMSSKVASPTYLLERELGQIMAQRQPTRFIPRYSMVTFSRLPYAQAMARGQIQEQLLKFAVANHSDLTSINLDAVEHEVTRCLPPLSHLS
T1 sequence (O15229 whole entry, the tested form may be a part): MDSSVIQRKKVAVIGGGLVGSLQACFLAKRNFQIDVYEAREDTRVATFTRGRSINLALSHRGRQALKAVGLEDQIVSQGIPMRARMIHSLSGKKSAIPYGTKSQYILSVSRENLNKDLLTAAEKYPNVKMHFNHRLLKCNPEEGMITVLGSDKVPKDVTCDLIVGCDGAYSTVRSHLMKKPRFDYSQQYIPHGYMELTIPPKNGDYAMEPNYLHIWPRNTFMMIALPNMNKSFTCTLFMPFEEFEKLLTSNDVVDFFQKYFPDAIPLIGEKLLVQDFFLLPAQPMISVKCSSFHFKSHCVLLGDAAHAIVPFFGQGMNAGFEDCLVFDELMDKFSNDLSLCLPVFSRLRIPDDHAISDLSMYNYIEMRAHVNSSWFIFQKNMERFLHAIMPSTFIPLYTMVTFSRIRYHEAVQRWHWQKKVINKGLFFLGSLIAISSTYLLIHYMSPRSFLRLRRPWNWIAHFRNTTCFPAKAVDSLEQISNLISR

Structure (SMILES): C[C@@H](Oc1cc2onc(CCC(=O)O)c2cc1Cl)c1ccccn1 [GSK065]
- mean slope of inhibition curve (human KMO [1]; human enzyme): 1.9

Structure (SMILES): Cc1ccc([C@@H](C)Oc2cc3onc(CCC(=O)O)c3cc2Cl)nn1 [GSK366]
- IC50 (human KMO [1]; [9]): 2.3 nM
- mean slope of inhibition curve (human KMO [1]; human enzyme): 1.9
- IC50 (human KMO [1]; human enzyme, mean of n determinations given in text, read-out: IC50 (mean potency, in vitro activity)): 2 nM
- IC50 (Pf KMO [2]): 0.7 nM
- kobs, onset of inhibition (human KMO [3]; 5 nM inhibitor): 0.031 min⁻¹

Structure (SMILES): Cc1cc2oc(=O)n(CCC(=O)O)c2cc1Cl [GSK428]
- IC50 (human KMO [1]; [9]): 10 nM
- Effect of [L-Kyn] on IC50 (mode of inhibition) (human KMO [1]; human KMO): linear relationship
- IC50 (Pf KMO [2]): 60 nM
- Generation of hydrogen peroxide (Pf KMO [4]): stimulate peroxide (H2O2) production
- Generation of hydrogen peroxide (human KMO [5]): stimulate peroxide (H2O2) production
- steady-state rate Vs after equilibration of inhibitor binding, dissociation timecourse (human KMO [6]; last 5 minutes of timecourse in presence of GSK428(A2)): 0.147
- steady-state rate Vs, onset of inhibition timecourse (human KMO [3]; 10 nM GSK428(A2), last 5 minutes of timecourse, uninhibited Vi = 0.022): 0.004

Structure (SMILES): C[C@@H](Oc1cc2oc(=O)n(CCC(=O)O)c2cc1Cl)c1ccccn1 [GSK775]
- dissociation half life of KMO-inhibitor complex (human KMO [6]; human KMO): ~2 h
- kobs, onset of inhibition at sub-saturating NADPH (human KMO [3]; 1 uM NADPH): 0.035 min⁻¹
- kobs, onset of inhibition at sub-saturating NADPH (human KMO [3]; 0.3 M NADPH (so in the source)): 0.013 min⁻¹
- kobs, onset of inhibition at sub-saturating NADPH (human KMO [3]; 5 M NADPH (so in the source)): 0.069 min⁻¹
- kobs, onset of inhibition (human KMO [3]; 10 nM inhibitor): 0.062 min⁻¹
- onset kobs, times slower than for GSK428(A2) (human KMO [3]; same concentration conditions): at least 10 times

Structure (SMILES): O=C(O)CCn1c(=O)oc2cc(OCc3ccccn3)c(Cl)cc21 [GSK891]
- IC50 (human KMO [1]; [9]): 3.6 nM
- IC50 (Pf KMO [2]): 4.3 nM

Structure (SMILES): Nc1ccccc1C(=O)CC(N)C(=O)O [L-Kyn, L-kynurenine]
- kcat (Pf KMO [7]; 200 μM NADPH): 2.3 s⁻¹
- Km (Pf KMO [7]; read-out: L-Kyn KM, 200 μM NADPH): 7 µM

Structure (SMILES): NC(=O)C1=CN([C@@H]2O[C@H](COP(=O)(O)OP(=O)(O)OC[C@H]3O[C@@H](n4cnc5c(N)ncnc54)[C@H](OP(=O)(O)O)[C@@H]3O)[C@@H](O)[C@H]2O)C=CC1 [NADPH]
- Km (human KMO [8]): 1 µM
